# Data reported in ChEMBL document CHEMBL5365408, “Small molecule inhibitors of PCSK9. SAR investigations of head and amine groups” (Bioorg Med Chem Lett, 2023).
# Assays:
# [1] = target: T1, Proprotein convertase subtilisin/kexin type 9 (Homo sapiens, UniProt Q8NBP7); test: Inhibition of full length human PCSK9 expressed in human Huh-7 cells by ELISA analysis; assay type: cell-based
# Bone marrow cell = test: (§1) Cytotoxicity against rat Bone marrow cell assessed as inhibition of cell growth with (R)-4-(3H-[1,2,3]triazolo[4,5-b]pyridin-3-yl)-N-(3-chloropyridin-2-yl)-N-(piperidin-3-yl) benzamide as high potent effect standard by celltiter-glo assay; assay type: toxicity, cell-based; conditions: bone marrow cell
# [2] = as §1; assay type: toxicity, cell-based; conditions: rat, rat bone marrow cells
# [3] = Lipophilicity, log D of the compound by shake flask method; assay type: physicochemical; conditions: octanol/water
# [4] = Cmax in rat at 25 mg/kg, po; assay type: ADME, organism-based; design: dose 25 mg/kg, route po; conditions: in vivo
# CYP2C9 = CYP2C9 (Homo sapiens, UniProt P11712); test: Inhibition of CYP2C9 (unknown origin) at 3 uM relative to control; assay type: ADME
# Chain of CYP2C9 (P11712 whole entry): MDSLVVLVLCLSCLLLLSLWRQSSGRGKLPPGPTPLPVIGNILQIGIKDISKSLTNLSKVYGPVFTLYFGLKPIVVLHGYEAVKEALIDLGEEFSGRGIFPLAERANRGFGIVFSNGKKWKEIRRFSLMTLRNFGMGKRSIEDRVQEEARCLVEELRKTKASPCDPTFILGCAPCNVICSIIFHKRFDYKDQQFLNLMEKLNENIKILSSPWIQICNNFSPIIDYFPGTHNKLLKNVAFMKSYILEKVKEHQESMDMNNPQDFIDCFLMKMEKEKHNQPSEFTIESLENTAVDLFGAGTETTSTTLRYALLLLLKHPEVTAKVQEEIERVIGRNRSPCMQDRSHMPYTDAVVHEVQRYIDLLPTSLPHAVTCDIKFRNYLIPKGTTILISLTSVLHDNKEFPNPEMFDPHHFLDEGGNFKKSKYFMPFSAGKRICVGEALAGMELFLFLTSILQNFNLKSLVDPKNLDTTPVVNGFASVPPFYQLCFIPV
# [5] = Unbound fraction in rat plasma by equilibrium dialysis analysis; assay type: ADME, cell-free
# [6] = Toxicity in rat assessed as reduction in T helper cells in peripheral blood at 150 mg/kg, po measured for 14 days; assay type: organism-based, T-cell; conditions: in vivo, 336 h, time 14 day
# [7] = Cytotoxicity against rat Bone marrow cell assessed as inhibition of cell growth with puromycin as high potent effect standard by celltiter-glo assay; assay type: toxicity, cell-based; conditions: rat bone marrow cells
# [8] = Toxicity in rat assessed as reduction in T cytotoxic cells in peripheral blood at 150 mg/kg, po measured for 14 days; assay type: organism-based, T-cell; conditions: in vivo, 336 h, time 14 day
# CYP1A2 = target: T2, CYP1A2 (Homo sapiens, UniProt P05177); test: Inhibition of CYP1A2 (unknown origin) at 3 uM relative to control; assay type: ADME
# T2 sequence (P05177 whole entry): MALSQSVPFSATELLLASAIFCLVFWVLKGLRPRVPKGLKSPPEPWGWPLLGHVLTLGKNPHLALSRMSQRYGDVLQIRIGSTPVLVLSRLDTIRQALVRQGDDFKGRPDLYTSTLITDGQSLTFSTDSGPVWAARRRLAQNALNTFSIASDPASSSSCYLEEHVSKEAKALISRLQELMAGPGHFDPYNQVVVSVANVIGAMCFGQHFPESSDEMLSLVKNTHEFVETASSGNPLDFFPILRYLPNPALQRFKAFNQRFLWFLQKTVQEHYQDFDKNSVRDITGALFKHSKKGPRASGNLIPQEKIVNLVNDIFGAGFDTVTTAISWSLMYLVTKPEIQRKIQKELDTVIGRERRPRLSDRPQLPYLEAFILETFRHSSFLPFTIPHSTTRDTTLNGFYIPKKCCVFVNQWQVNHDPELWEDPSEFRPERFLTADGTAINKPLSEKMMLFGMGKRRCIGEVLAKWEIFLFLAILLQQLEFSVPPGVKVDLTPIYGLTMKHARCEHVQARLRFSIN
# [9] = Apparent permeability across basolateral to apical side in MDCK-MDR1 cells; assay type: ADME, cell-based, Canis lupus familiaris; conditions: dog, read-out: permeability
# [10] = Apparent permeability of compound in MDCK-II cells; assay type: ADME, cell-based, Canis lupus familiaris; conditions: dog, read-out: permeability
# Mus musculus = test: Downregulation of PCSK9 level in po dosed mouse; assay type: functional, organism-based; conditions: dose 10-300 mg/kg
# [11] = Cytotoxicity against human CD34-positive cell assessed as reduction in cell growth by celltiter-glo assay; assay type: toxicity, cell-based; conditions: human CD34-positive cells
# [12] = Oral bioavailability in Sprague-Dawley rat at 5 mg/kg; assay type: ADME, organism-based; conditions: in vivo
# [13] = Clearance in Sprague-Dawley rat at 1 mg/kg, iv; assay type: ADME, organism-based; conditions: in vivo
# [14] = Unbound fraction in mouse plasma by equilibrium dialysis analysis; assay type: ADME, cell-free
# [15] = Selectivity index, ratio of IC50 for cytotoxicity against rat Bone marrow cell assessed as inhibition of cell growth by celltiter-glo assay to IC50 for inhibition of full length human PCSK9 expressed in human Huh-7 cells by ELISA analysis
# [16] = Half life in Sprague-Dawley rat at 1 mg/kg, iv; assay type: ADME, organism-based; conditions: in vivo
# [17] = Apparent permeability across apical to basolateral side in MDCK-MDR1 cells; assay type: ADME, cell-based, Canis lupus familiaris; conditions: dog, read-out: permeability
# [18] = Toxicity in rat assessed as reduction in B cells in peripheral blood at 150 mg/kg, po measured for 14 days; assay type: organism-based; conditions: in vivo, 336 h, time 14 day
# [19] = Volume of distribution at steady state in Sprague-Dawley rat at 1 mg/kg, iv; assay type: ADME, organism-based; conditions: in vivo, read-out: Vdss
# [20] = Toxicity in rat assessed as reduction in T cells in peripheral blood at 150 mg/kg, po measured for 14 days; assay type: organism-based, T-cell; conditions: in vivo, 336 h, time 14 day
# [21] = Unbound fraction in human plasma by equilibrium dialysis analysis; assay type: ADME, cell-free
# [22] = Cmax in Sprague-Dawley rat at 1 mg/kg, iv; assay type: ADME, organism-based; design: dose 1 mg/kg, route iv; conditions: in vivo
# [23] = Toxicity in rat assessed as mortality at 25 to 400 mg/kg, po measured for 14 days; assay type: organism-based; conditions: in vivo, 336 h, dose 25-400 mg/kg, time 14 day
# CYP3A4 = CYP3A4 (Homo sapiens, UniProt P08684); test: Inhibition of CYP3A4 (unknown origin) at 3 uM relative to control; assay type: ADME
# Chain of CYP3A4 (P08684 whole entry): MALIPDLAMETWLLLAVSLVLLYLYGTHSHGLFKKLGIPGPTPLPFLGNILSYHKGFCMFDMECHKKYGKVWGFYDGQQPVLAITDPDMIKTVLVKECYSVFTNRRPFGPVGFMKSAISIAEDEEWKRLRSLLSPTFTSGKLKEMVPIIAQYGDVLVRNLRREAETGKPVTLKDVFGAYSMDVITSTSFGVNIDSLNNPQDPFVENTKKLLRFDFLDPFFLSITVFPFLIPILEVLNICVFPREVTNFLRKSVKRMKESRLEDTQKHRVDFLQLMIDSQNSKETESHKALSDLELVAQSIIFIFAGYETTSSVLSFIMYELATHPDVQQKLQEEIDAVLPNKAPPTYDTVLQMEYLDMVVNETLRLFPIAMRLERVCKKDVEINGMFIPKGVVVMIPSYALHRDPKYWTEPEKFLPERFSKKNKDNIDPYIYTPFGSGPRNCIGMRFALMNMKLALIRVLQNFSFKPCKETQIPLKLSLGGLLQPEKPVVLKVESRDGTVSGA
# [24] = target: Voltage-gated inwardly rectifying potassium channel KCNH2 (Homo sapiens, UniProt Q12809); test: Inhibition of hERG by patch clamp assay; assay type: toxicity
# Chain of Voltage-gated inwardly rectifying potassium channel KCNH2 (Q12809 whole entry): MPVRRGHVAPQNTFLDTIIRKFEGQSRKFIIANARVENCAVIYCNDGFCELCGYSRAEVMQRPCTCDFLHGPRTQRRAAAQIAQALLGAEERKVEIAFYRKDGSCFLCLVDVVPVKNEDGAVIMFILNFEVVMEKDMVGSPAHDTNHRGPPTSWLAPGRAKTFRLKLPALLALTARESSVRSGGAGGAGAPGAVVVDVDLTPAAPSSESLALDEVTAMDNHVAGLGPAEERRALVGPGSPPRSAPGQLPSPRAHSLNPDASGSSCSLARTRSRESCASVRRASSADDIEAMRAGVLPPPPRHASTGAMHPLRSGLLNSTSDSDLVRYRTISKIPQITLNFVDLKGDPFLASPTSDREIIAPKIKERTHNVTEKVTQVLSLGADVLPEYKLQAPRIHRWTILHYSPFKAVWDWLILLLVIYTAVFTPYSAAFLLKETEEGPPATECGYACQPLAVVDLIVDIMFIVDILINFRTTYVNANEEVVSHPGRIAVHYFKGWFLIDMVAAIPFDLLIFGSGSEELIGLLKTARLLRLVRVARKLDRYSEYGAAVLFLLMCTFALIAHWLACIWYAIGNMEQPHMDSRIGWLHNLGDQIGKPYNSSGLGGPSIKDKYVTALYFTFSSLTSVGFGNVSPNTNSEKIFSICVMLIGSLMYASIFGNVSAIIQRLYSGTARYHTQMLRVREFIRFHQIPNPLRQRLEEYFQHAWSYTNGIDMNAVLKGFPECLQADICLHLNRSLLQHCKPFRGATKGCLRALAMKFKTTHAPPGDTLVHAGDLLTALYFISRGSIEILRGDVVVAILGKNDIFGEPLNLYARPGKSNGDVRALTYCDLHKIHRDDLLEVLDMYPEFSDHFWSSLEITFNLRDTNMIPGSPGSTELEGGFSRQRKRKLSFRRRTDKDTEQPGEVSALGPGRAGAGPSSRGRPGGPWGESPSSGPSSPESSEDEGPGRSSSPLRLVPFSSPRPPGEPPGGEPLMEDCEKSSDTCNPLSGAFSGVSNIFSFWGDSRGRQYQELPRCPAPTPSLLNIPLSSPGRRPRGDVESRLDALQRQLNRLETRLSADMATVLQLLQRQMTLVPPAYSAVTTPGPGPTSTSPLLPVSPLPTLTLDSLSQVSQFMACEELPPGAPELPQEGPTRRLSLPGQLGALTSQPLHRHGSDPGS
# CYP2D6 = CYP2D6 (Homo sapiens, UniProt P10635); test: Inhibition of CYP2D6 (unknown origin) at 3 uM relative to control; assay type: ADME
# Chain of CYP2D6 (P10635 whole entry): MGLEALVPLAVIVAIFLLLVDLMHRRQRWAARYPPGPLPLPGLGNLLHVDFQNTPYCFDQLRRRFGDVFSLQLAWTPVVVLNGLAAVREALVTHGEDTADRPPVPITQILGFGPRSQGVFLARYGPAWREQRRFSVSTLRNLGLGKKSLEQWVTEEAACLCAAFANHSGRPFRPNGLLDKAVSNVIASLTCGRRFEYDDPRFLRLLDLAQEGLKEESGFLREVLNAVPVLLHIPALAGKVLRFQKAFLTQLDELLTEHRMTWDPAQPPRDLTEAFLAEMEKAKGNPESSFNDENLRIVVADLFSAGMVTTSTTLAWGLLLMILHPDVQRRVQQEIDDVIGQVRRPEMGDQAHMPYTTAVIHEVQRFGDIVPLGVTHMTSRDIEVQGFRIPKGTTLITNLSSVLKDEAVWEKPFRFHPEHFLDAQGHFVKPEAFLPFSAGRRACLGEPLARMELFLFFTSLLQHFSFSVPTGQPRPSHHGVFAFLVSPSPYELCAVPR
# [25] = target: T1, Proprotein convertase subtilisin/kexin type 9; test: Inhibition of full length human PCSK9 expressed in human Huh-7 cells at 20 uM by ELISA analysis relative to control; assay type: cell-based
# T1 sequence (Q8NBP7 31-152 limits assumed): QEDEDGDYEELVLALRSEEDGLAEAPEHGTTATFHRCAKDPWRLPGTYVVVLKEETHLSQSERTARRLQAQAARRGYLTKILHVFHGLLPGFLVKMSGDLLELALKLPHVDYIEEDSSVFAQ
# T1 sequence (Q8NBP7 153-692 limits assumed): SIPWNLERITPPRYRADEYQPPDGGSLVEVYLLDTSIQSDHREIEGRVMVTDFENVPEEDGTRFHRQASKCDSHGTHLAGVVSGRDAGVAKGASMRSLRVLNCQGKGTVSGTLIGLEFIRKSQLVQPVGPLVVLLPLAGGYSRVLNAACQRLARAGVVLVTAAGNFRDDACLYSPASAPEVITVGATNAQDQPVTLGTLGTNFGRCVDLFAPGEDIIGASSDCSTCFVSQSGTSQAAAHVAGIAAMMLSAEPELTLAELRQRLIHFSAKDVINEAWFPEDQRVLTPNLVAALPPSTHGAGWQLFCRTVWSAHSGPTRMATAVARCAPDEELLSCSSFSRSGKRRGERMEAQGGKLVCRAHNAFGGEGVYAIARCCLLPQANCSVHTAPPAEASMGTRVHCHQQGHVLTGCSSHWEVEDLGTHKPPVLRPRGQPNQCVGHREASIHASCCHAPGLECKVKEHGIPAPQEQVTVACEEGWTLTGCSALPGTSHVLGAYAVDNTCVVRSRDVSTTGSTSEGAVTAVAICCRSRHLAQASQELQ
compound,measurement,setting,value
NC(=O)NC[C@H]1CNC[C@H](N(C(=O)c2ccc(-n3nnc4cccnc43)cc2)c2ncccc2Cl)C1 (racemic),IC50,[1],> 20 µM
C[C@H]1CNC[C@H](N(C(=O)c2ccc(-n3nnc4cccnc43)cc2)c2ncccc2Cl)C1,IC50,Bone marrow cell,22 µM
same,IC50,[1],14.1 µM
Cc1cccnc1N(C(=O)c1ccc(-c2cnn3cccnc23)cc1)[C@@H]1CCCNC1,IC50,[2],18.2 µM
same,logD,[3],0.6
same,Cmax,[4],255 ng/mL
same,inhibition at 3 µM,CYP2C9,< 5%
same,Fu,[5],0.32%
same,IC50,[1],2.25 µM
same,Activity,[6],Non-Toxic
same,IC50,[7],16.8 µM
same,Activity,[8],Non-Toxic
same,inhibition at 3 µM,CYP1A2,< 5%
same,Papp B→A,[9],15.7 ×10⁻⁶ cm/s
same,Papp,[10],7 ×10⁻⁶ cm/s
same,Activity,Mus musculus,Dose-Dependent Effect
same,IC50,[11],13.6 µM
same,bioavailability,[12],20%
same,clearance,[13],43.6 mL/min/kg
same,Fu,[14],0.37%
same,Ratio IC50,[15],7.47
same,half-life,[16],1.7 h
same,Papp A→B,[17],0.4 ×10⁻⁶ cm/s
same,Activity,[18],Non-Toxic
same,Vd,[19],3 L/kg
same,Activity,[20],Non-Toxic
same,Fu,[21],0.54%
same,Cmax,[22],121 ng/mL
same,Activity,[23],Non-Toxic
same,inhibition at 3 µM,CYP3A4,< 5%
same,IC50,[24],56.5 µM
same,inhibition at 3 µM,CYP2D6,< 5%
C[C@@H]1CNC[C@H](N(C(=O)c2ccc(-n3nnc4cccnc43)cc2)c2ncccc2Cl)C1,IC50,Bone marrow cell,23.3 µM
same,IC50,[1],17.1 µM
CCc1cccnc1N(C(=O)c1ccc(-c2cnn3cccnc23)cc1)[C@@H]1CCCNC1,IC50,[1],3.31 µM
O=C(c1ccc(-c2cnn3cccnc23)cc1)N(c1ncccc1C(F)(F)F)[C@@H]1CCCNC1,IC50,[2],21.2 µM
same,logD,[3],1.1
same,inhibition at 3 µM,CYP2C9,< 40%
same,IC50,[1],2.79 µM
same,IC50,[7],> 20 µM
same,inhibition at 3 µM,CYP1A2,< 40%
same,Papp B→A,[9],26.4 ×10⁻⁶ cm/s
same,Papp,[10],7 ×10⁻⁶ cm/s
same,IC50,[11],35.9 µM
same,Fu,[14],0.13%
same,Ratio IC50,[15],7.6
same,Papp A→B,[17],0.7 ×10⁻⁶ cm/s
same,Fu,[21],0.41%
same,inhibition at 3 µM,CYP3A4,< 40%
same,IC50,[24],57.6 µM
same,inhibition at 3 µM,CYP2D6,< 40%
CNC(=O)OC[C@H]1CNC[C@H](N(C(=O)c2ccc(-n3nnc4cccnc43)cc2)c2ncccc2Cl)C1 (racemic),IC50,[1],> 20 µM
O=C(c1ccc(-c2cnn3cccnc23)cc1)N(c1ncccc1C1CC1)[C@@H]1CCCNC1,IC50,[1],7.74 µM
COc1cccnc1N(C(=O)c1ccc(-c2cnn3cccnc23)cc1)[C@@H]1CCCNC1,IC50,[1],16.9 µM
O=C(c1ccc(-c2cnn3cccnc23)cc1)N(c1ncccc1F)[C@@H]1CCCNC1,IC50,[1],> 20 µM
CO[C@H]1CNC[C@H](N(C(=O)c2ccc(-n3nnc4cccnc43)cc2)c2ncccc2Cl)C1 (racemic),IC50,[2],76.6 µM
same,IC50,[1],> 20 µM
C[C@@H]1CNC[C@H](N(C(=O)c2ccc(-n3nnc4cccnc43)cc2)c2ncccc2Cl)C1 (racemic) [listing 1 of 2 here],inhibition,[25],38%
Cn1ccc2ccnc(N(C(=O)c3ccc(-n4nnc5cccnc54)cc3)[C@@H]3CCCNC3)c21,IC50,[1],0.58 µM
same,IC50,[7],0.04 µM
same,Ratio IC50,[15],0.07
C[C@@H]1CNC[C@H](N(C(=O)c2ccc(-n3nnc4cccnc43)cc2)c2ncccc2Cl)C1 (racemic) [listing 2 of 2 here],IC50,[2],35.6 µM
CC(=O)NC[C@H]1CNC[C@H](N(C(=O)c2ccc(-n3nnc4cccnc43)cc2)c2ncccc2Cl)C1 (racemic),IC50,[1],> 20 µM
Cn1ncc2ccnc(N(C(=O)c3ccc(-n4nnc5cccnc54)cc3)[C@@H]3CCCNC3)c21,IC50,[1],0.62 µM
same,IC50,[7],0.18 µM
same,Ratio IC50,[15],0.29
O=C(c1ccc(-n2nnc3cccnc32)cc1)N(c1nccn1C1CC1)[C@@H]1CCCNC1,IC50,[1],6.84 µM
same,IC50,[7],1.24 µM
same,Ratio IC50,[15],0.18
O=C(c1ccc(-n2nnc3cccnc32)cc1)N(c1nccc2c1CCCC2)[C@@H]1CCCNC1,IC50,[1],2.28 µM
same,IC50,[7],0.41 µM
same,Ratio IC50,[15],0.18
N#Cc1cccnc1N(C(=O)c1ccc(-c2cnn3cccnc23)cc1)[C@@H]1CCCNC1,IC50,[1],> 20 µM
O=C(c1ccc(-n2nnc3cccnc32)cc1)N(c1ncccc1Cl)[C@@H]1CCCNC1,IC50,[2],3.23 µM
same,Cmax,[4],312 ng/mL
same,IC50,[7],1.15 µM
O=C(c1ccc(-n2nnc3cccnc32)cc1)N(c1ncccc1Cl)[C@H]1CNC[C@@H](CO)C1 (racemic),IC50,[2],> 100 µM
same,inhibition,[25],11%
Cc1ccnc(N(C(=O)c2ccc(-n3nnc4cccnc43)cc2)[C@@H]2CCCNC2)c1Cl,IC50,[1],1.09 µM
same,IC50,[7],0.38 µM
same,Ratio IC50,[15],0.35
O=C(c1ccc(-n2nnc3cccnc32)cc1)N(c1ncccc1Cl)[C@H]1CNC[C@H](CO)C1 (racemic),IC50,[2],9.9 µM
same,IC50,[1],8.9 µM
C[C@H]1CNC[C@H](N(C(=O)c2ccc(-n3nnc4cccnc43)cc2)c2ncccc2Cl)C1 (racemic) [listing 1 of 2 here],IC50,[2],37.2 µM
Cc1nccnc1N(C(=O)c1ccc(-n2nnc3cccnc32)cc1)[C@@H]1CCCNC1,IC50,[2],10.9 µM
same,IC50,[1],1.84 µM
same,IC50,[7],2.36 µM
same,Ratio IC50,[15],1.28
O=C(c1ccc(-c2cnn3cccnc23)cc1)N(c1ncccc1-c1ccccc1)[C@@H]1CCCNC1,IC50,[1],1.8 µM
same,IC50,[7],4.39 µM
same,Ratio IC50,[15],2.43
O=C(c1ccc(-n2nnc3cccnc32)cc1)N(c1ncccc1C(F)(F)F)[C@@H]1CCCNC1,IC50,[2],13.8 µM
same,IC50,[1],1.66 µM
same,Ratio IC50,[15],8.28
O=C(c1ccc(-n2nnc3cccnc32)cc1)N(c1ncccc1OC(F)(F)F)[C@@H]1CCCNC1,IC50,[2],6.44 µM
same,IC50,[1],5.4 µM
COC(=O)NC[C@H]1CNC[C@H](N(C(=O)c2ccc(-n3nnc4cccnc43)cc2)c2ncccc2Cl)C1 (racemic),IC50,[1],> 20 µM
O=C(c1ccc(-n2nnc3cccnc32)cc1)N(c1ncccc1Cl)[C@H]1CNC[C@H](Oc2ccccc2)C1 (racemic),IC50,[1],> 20 µM
C[C@H]1CNC[C@H](N(C(=O)c2ccc(-n3nnc4cccnc43)cc2)c2ncccc2Cl)C1 (racemic) [listing 2 of 2 here],inhibition,[25],43%
O=C(c1ccc(-n2nnc3cccnc32)cc1)N(c1nccc2ccsc12)[C@@H]1CCCNC1,IC50,[1],0.73 µM
same,IC50,[7],0.28 µM
same,Ratio IC50,[15],0.38
Cc1cccnc1N(C(=O)c1ccc(-n2nnc3cccnc32)cc1)[C@@H]1CCCNC1,IC50,[1],1.97 µM
same,IC50,[7],0.99 µM
same,Ratio IC50,[15],0.5
O=C(c1ccc(-n2nnc3cccnc32)cc1)N(c1ncccc1Cl)[C@H]1CNC[C@H](CO)C1,IC50,Bone marrow cell,7.2 µM
same,IC50,[1],4.6 µM
O=C(c1ccc(-n2nnc3cccnc32)cc1)N(c1ncccc1Cl)[C@H]1CNC[C@H](c2ccccc2)C1 (racemic),IC50,[2],12.5 µM
same,IC50,[1],> 20 µM
Cc1cnc2c(c1)nnn2-c1ccc(C(=O)N(c2ncccc2Cl)[C@@H]2CCCNC2)nc1,IC50,[2],27.1 µM
same,IC50,[7],19.9 µM
